52 molecules from ChEMBL document CHEMBL3045482, “Synthesis, crystal structure, in vitro acetohydroxyacid synthase inhibition, in vivo herbicidal activity, and 3D-QSAR of new asymmetric aryl disulfides” (J Agric Food Chem, 2012) can be followed below.

The first experiment concerns Brassica rapa subsp. oleifera. In words: Herbicidal activity against Brassica rapa subsp. oleifera assessed as Brassica rapa subsp. oleifera root growth inhibition at 100 mg/L. In kind it is functional. The note with it: read-out: GI.
`COc1ccc(SSc2nc[nH]n2)cc1`: the inhibition of growth at 100 µg/mL stood at 44.6%.
The same measure, in the same setting: as for `Cc1nc(SSc2ccccc2)n[nH]1`, the figure is 69.4%; as for `Cc1ccc(SSc2n[nH]c(C)n2)cc1`, 62.5%; as for `COC(=O)c1ccccc1SSc1n[nH]c(C)n1`, 10.6%.
The same measure, in the same setting: as for `CCOC(=O)c1ccccc1SSc1n[nH]c(C)n1`, the figure is 26.6%; as for `Cc1nc(SSc2ccccc2[N+](=O)[O-])n[nH]1`, 59.6%; as for `COc1ccc(SSc2n[nH]c(C)n2)cc1`, 28.3%.
The same measure, in the same setting: as for `Cc1nc(SSc2ccc(Cl)cc2)n[nH]1`, the figure is 24.1%; as for `Cc1nc(SSc2ccc(Br)cc2)n[nH]1`, 17.6%.
For the molecule `Cc1nc(SSc2ccccc2F)n[nH]1`, the inhibition of growth at 100 µg/mL amounted to 13%.
Still for that read-out and setting: as for `Cc1nc(SSc2ccccc2C)n[nH]1`, the figure is 36.8%; as for `Cc1nc(SSc2ccc3ccccc3c2)n[nH]1`, 0%; as for `c1ccc(SSc2n[nH]c(-c3ccccc3)n2)cc1`, 81.7%.
The same measure, in the same setting: with `Cc1ccc(SSc2n[nH]c(-c3ccccc3)n2)cc1` the figure was 87.5%.
On the same count and under the same terms, as for `COC(=O)c1ccccc1SSc1n[nH]c(-c2ccccc2)n1`, the figure is 52.8%.
Regarding `CCOC(=O)c1ccccc1SSc1n[nH]c(-c2ccccc2)n1`, the inhibition of growth at 100 µg/mL came out at 34.3%.
Same read-out and setting: as for `O=[N+]([O-])c1ccccc1SSc1n[nH]c(-c2ccccc2)n1`, the figure is 0%; as for `COc1ccc(SSc2n[nH]c(-c3ccccc3)n2)cc1`, 29.4%.
Still for that read-out and setting: with `Clc1ccc(SSc2n[nH]c(-c3ccccc3)n2)cc1` the figure was 37.5%.
Still for that read-out and setting: with `Cc1ccc(-c2nc(SSc3ccccc3)n[nH]2)cc1` the figure was 54.1%.
For `Cc1ccc(SSc2n[nH]c(-c3ccc(C)cc3)n2)cc1`, the inhibition of growth at 100 µg/mL came to 0%.
Same read-out and setting: as for `COC(=O)c1ccccc1SSc1n[nH]c(-c2ccc(C)cc2)n1`, the figure is 44.9%; as for `CCOC(=O)c1ccccc1SSc1n[nH]c(-c2ccc(C)cc2)n1`, 0%; as for `Cc1ccc(-c2nc(SSc3ccccc3[N+](=O)[O-])n[nH]2)cc1`, 0%.
The same measure, in the same setting: with `COc1ccc(SSc2n[nH]c(-c3ccc(C)cc3)n2)cc1` the figure was 11%; with `Cc1ccc(-c2nc(SSc3ccc(Cl)cc3)n[nH]2)cc1`, 24.1%.
For `c1ccc(SSc2n[nH]c(-c3ccncc3)n2)cc1`, the inhibition of growth at 100 µg/mL stood at 70.2%.
On the same count and under the same terms, with `Cc1ccc(SSc2n[nH]c(-c3ccncc3)n2)cc1` the figure was 6.9%.
The same measure, in the same setting: as for `COC(=O)c1ccccc1SSc1n[nH]c(-c2ccncc2)n1`, the figure is 30.5%.
As to `CCOC(=O)c1ccccc1SSc1n[nH]c(-c2ccncc2)n1`, the inhibition of growth at 100 µg/mL is 0%.
Take `O=[N+]([O-])c1ccccc1SSc1n[nH]c(-c2ccncc2)n1`: the inhibition of growth at 100 µg/mL is 0%.
Consider `COc1ccc(SSc2n[nH]c(-c3ccncc3)n2)cc1`, for which the inhibition of growth at 100 µg/mL was 0%.
The same measure, in the same setting: with `Clc1ccc(SSc2n[nH]c(-c3ccncc3)n2)cc1` the figure was 0%; with `c1ccc(SSc2n[nH]c(-c3cccnc3)n2)cc1`, 66.2%.
Same read-out and setting: with `Cc1ccc(SSc2n[nH]c(-c3cccnc3)n2)cc1` the figure was 0%; with `COC(=O)c1ccccc1SSc1n[nH]c(-c2cccnc2)n1`, 0%.
As to `CCOC(=O)c1ccccc1SSc1n[nH]c(-c2cccnc2)n1`, the inhibition of growth at 100 µg/mL amounted to 0%.
The same measure, in the same setting: with `O=[N+]([O-])c1ccccc1SSc1n[nH]c(-c2cccnc2)n1` the figure was 27.4%.
On the same count and under the same terms, as for `COc1ccc(SSc2n[nH]c(-c3cccnc3)n2)cc1`, the figure is 14.3%.
Take `Clc1ccc(SSc2n[nH]c(-c3cccnc3)n2)cc1`: the inhibition of growth at 100 µg/mL stood at 0%.
The same measure, in the same setting: with `c1ccc(SSc2nc[nH]n2)cc1` the figure was 86.6%; with `Cc1ccc(SSc2nc[nH]n2)cc1`, 67.5%.
Same read-out and setting: as for `COC(=O)c1ccccc1SSc1nc[nH]n1`, the figure is 54.8%; as for `CCOC(=O)c1ccccc1SSc1nc[nH]n1`, 21.1%.
Same read-out and setting: as for `O=[N+]([O-])c1ccccc1SSc1nc[nH]n1`, the figure is 69.8%; as for `Clc1ccc(SSc2nc[nH]n2)cc1`, 50.2%.
Take `Brc1ccc(SSc2nc[nH]n2)cc1`: the inhibition of growth at 100 µg/mL was found to be 27.4%.
On the same count and under the same terms, with `Fc1ccccc1SSc1nc[nH]n1` the figure was 47.2%.
Still for that read-out and setting: as for `Cc1ccccc1SSc1nc[nH]n1`, the figure is 43.6%.
The same measure, in the same setting: as for `c1ccc2cc(SSc3nc[nH]n3)ccc2c1`, the figure is 16.3%; as for `COC(=O)c1ccccc1S(=O)(=O)NC(=O)Nc1nccc(C)n1` [MONOSULFURON ESTER], 88.5%.

Another experiment concerns the target Acetolactate synthase, chloroplastic (Arabidopsis thaliana, UniProt P17597, W574L).
Conditions: not given
With `Cc1nc(SSc2ccccc2[N+](=O)[O-])n[nH]1`, the Ki (usually a measure of affinity in units of concentration, obtained from inhibition or displacement) was found to be 27.1 µM.
The same measure, in the same setting: with `Cc1ccc(SSc2nc[nH]n2)cc1` the figure was 25.7 µM; with `CC(C)C1(C)N=C(c2nc3ccccc3cc2C(=O)O)NC1=O` (stereo not drawn) [IMAZAQUIN], 470 µM.
The molecule `COC(=O)c1ccccc1S(=O)(=O)NC(=O)Nc1nccc(C)n1` [MONOSULFURON ESTER] came in with a Ki of 8.53 µM.

A further experiment addresses T1, Acetolactate synthase, chloroplastic (Arabidopsis thaliana, UniProt P17597).
T1 sequence (P17597 whole entry): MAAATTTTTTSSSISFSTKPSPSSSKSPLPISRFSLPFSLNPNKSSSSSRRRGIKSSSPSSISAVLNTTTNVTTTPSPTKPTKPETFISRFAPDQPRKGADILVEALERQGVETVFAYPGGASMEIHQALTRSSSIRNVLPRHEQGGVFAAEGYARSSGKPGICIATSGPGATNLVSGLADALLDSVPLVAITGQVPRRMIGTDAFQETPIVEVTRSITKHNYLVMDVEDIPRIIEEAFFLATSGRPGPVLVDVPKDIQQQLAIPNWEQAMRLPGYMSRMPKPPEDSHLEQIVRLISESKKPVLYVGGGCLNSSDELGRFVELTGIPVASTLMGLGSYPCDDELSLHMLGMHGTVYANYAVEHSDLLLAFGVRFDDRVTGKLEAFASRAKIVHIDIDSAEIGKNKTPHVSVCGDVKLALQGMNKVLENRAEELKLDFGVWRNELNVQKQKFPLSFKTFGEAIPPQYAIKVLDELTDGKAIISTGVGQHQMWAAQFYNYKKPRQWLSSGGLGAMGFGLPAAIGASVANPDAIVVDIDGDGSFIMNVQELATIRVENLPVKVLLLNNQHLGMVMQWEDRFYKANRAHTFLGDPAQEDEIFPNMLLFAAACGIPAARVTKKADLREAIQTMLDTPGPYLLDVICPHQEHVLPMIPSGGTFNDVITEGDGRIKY
Conditions: not given
In turn, `Cc1nc(SSc2ccccc2[N+](=O)[O-])n[nH]1` displayed a Ki of 5.57 µM.
Still for that read-out and setting: as for `Cc1ccc(SSc2nc[nH]n2)cc1`, the figure is 4.69 µM.
On the same count and under the same terms, as for `COC(=O)c1ccccc1S(=O)(=O)NC(=O)Nc1nccc(C)n1` [MONOSULFURON ESTER], the figure is 0.26 µM.
